Laboratory results as given in paper PMC11678869, “Functional Role of Odorant-Binding Proteins in Response to Sex Pheromone Component Z8-14:Ac in Grapholita molesta (Busck)” (Insects, 2024).

Test system: OFM males
Assay: Field trapping with delta traps, pear orchard
Assay type: in vivo, Grapholita molesta
Settings: for Inhibition Rate of OFM Males: vs 100:4:0
Description: To determine the inhibitory effects on OFM male adults and the impact on the trapping effects of PFM male adults, varying amounts of Z8-14:Ac (0, 5, 10, 25, 50, 75, 100, 125, 150 μg) or Z10-14:Ac (0, 25, 50, 100, 150, 250, 350, 450, and 550 μg) were added to rubber septa loaded with a constant dosage of the main pheromone (500 μg of Z8-12:Ac and 20 μg of E8-12:Ac) of the PFM. Trapping experiments of Z8-14:Ac were carried out in peach and pear orchards in Yan’an and Xinjiang (China), respectively. Trapping tests of Z10-14:Ac were performed in pear orchards in Xinjiang (China). Each orchard had nine plots, with three plots in one field. Each plot consisted of a linear arrangement of traps loaded with a constant dosage of the main pheromones and different percentages of the secondary pheromone Z8-14:Ac or Z10-14:Ac of the PFM. Plots in the same field were placed 30 m apart, and fields were ≥1 km apart. The traps were hung 1.4 m from the ground on a suspension bracket between two rows of peach or pear trees from 10 June to 25 July 2021 in Xinjiang and from 15 June to 30 July 2021 in Yan’an. The positions of the traps within the plot were randomly arranged. Every 5 days, counts were taken, and the traps were rotated to the adjacent position to avoid any potential position effects. The septa loaded with sex pheromone components were replaced with new ones after every 15 days of suspension. The data were analyzed using a one-way ANOVA, and the differences in the average trapping of OFM and PFM males using sex attractants containing different amounts of Z8-14:Ac or Z10-14:Ac were further analyzed using Tukey’s HSD test, both of which were performed using SPSS 23.0.

[1] = pear orchard, Z8-12:Ac/E8-12:Ac/Z8-14:Ac 500/20/5 μg (100:4:1)
[2] = pear orchard, Z8-12:Ac/E8-12:Ac/Z8-14:Ac 500/20/10 μg (100:4:2)
[3] = pear orchard, Z8-12:Ac/E8-12:Ac/Z8-14:Ac 500/20/25 μg (100:4:5)
[4] = pear orchard, Z8-12:Ac/E8-12:Ac/Z8-14:Ac 500/20/50 μg (100:4:10)
[5] = pear orchard, Z8-12:Ac/E8-12:Ac/Z8-14:Ac 500/20/75 μg (100:4:15)
[6] = pear orchard, Z8-12:Ac/E8-12:Ac/Z8-14:Ac 500/20/100 μg (100:4:20)
[7] = pear orchard, Z8-12:Ac/E8-12:Ac/Z8-14:Ac 500/20/125 μg (100:4:25)
[8] = pear orchard, Z8-12:Ac/E8-12:Ac/Z8-14:Ac 500/20/150 μg (100:4:30)

Compound: CCCCC/C=C\CCCCCCCOC(C)=O [Z8-14:Ac, (Z)-8-tetradecenyl acetate]
- maximum reduction of the capture of OFM males (field trials, varying ratios of Z8-14:Ac (1% to 30%) added to Z8-12:Ac and E8-12:Ac): up to 96.54%
- Total OFM Males/Trap [1]: 59.24 ± 10.14 b Males/Trap
- Inhibition Rate of OFM Males [1]: 65.04%
- Total OFM Males/Trap [2]: 61.31 ± 7.21 b Males/Trap
- Inhibition Rate of OFM Males [2]: 63.82%
- Total OFM Males/Trap [3]: 21.36 ± 6.22 c Males/Trap
- Inhibition Rate of OFM Males [3]: 87.40%
- Total OFM Males/Trap [4]: 12.05 ± 0.91 c Males/Trap
- Inhibition Rate of OFM Males [4]: 92.89%
- Total OFM Males/Trap [5]: 8.95 ± 2.69 c Males/Trap
- Inhibition Rate of OFM Males [5]: 94.72%
- Total OFM Males/Trap [6]: 12.74 ± 6.57 c Males/Trap
- Inhibition Rate of OFM Males [6]: 92.48%
- Total OFM Males/Trap [7]: 5.86 ± 1.50 c Males/Trap
- Inhibition Rate of OFM Males [7]: 96.54%
- Total OFM Males/Trap [8]: 10.33 ± 2.98 c Males/Trap
- Inhibition Rate of OFM Males [8]: 93.90%
- reduction of the number of OFM males caught (pear orchard, adding 5–30% of Z8-14:Ac to Z8-12:Ac and E8-12:Ac): more than 86%
- reduction of the capture of OFM males (pear orchards, adding 1–2% of Z8-14:Ac to Z8-12:Ac and E8-12:Ac (100:4)): 63.82–65.04%
